According to patent publication US9067871B2, “Aminotetraline derivatives, pharmaceutical compositions containing them, and their use in therapy” (ABBVIE DEUTSCHLAND GMBH & CO KG, priority 2009, dated 2015):
Where a name gives a salt, the structure may show the parent alone. Read-outs that look alike come from different tables or passages of the source.

Columns and labels:
[1] = biological target: human GlyT1c (Homo sapiens (Human), UniProt P48067); assay: [3H]-Glycine uptake into recombinant CHO cells expressing human GlyT1; assay type: cell-based
Sequence of human GlyT1c (P48067 whole entry): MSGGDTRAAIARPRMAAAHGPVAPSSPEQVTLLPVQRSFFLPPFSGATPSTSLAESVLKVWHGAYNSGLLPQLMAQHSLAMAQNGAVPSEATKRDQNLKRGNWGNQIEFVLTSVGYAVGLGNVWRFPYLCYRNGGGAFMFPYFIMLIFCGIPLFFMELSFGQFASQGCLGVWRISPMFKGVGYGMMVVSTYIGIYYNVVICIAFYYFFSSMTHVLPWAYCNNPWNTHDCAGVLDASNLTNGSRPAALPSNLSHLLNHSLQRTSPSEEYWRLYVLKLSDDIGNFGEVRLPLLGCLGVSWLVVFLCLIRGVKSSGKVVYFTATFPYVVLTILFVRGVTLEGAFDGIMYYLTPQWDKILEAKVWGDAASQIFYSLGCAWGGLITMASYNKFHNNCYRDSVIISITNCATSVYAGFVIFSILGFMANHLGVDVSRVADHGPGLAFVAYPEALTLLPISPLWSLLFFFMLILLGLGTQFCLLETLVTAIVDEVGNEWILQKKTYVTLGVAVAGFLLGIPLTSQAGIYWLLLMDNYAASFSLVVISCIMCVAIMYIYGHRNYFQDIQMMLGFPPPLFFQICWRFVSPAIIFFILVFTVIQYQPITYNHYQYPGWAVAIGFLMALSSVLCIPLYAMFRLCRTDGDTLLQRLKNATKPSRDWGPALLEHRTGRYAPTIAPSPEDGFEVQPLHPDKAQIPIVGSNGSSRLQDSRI
Description: 1. [^3H]-Glycine uptake into recombinant CHO cells expressing human GlyT1: Human GlyT1c expressing recombinant hGlyT1c—5_CHO cells were plated at 20,000 cells per well in 96 well Cytostar-T scintillation microplates (Amersham Biosciences) and cultured to sub-confluency for 24 h. […] 80 μl HBSS buffer were added, followed by 10 μl inhibitor or vehicle (10% DMSO) and 10 μl [^3H]-glycine (TRK71, Amersham Biosciences) to a final concentration of 200 nM for initiation of glycine uptake. The plates were placed in a Wallac Microbeta (PerkinElmer) and continuously counted by solid phase scintillation spectrometry during up to 3 hours. Nonspecific uptake was determined in the presence of 10 μM Org24598.

[2] = biological target: human GlyT1c transporter (Homo sapiens (Human), UniProt P48067); assay: Radioligand binding assay using recombinant CHO cell membranes expressing human GlyT1; conditions: read-out: radioligand binding Kiapp
Sequence of human GlyT1c transporter (P48067 whole entry): as above
Source text: 2. Radioligand binding assays using recombinant CHO cell membranes expressing human GlyT1: […]

[3] = hGlyT1c_5_CHO cells, 200 nM [3H]-glycine
[4] = human GlyT1c-expressing CHO cell membranes

IC50 [1, 3] [µM]	Ki [2, 4] [µM]	SMILES	IC50 [1] [µM]	Ki [2] [µM]
		Cn1cnc(S(=O)(=O)NCCOc2ccc3c(c2)C(Cc2ccc(Cl)c(Cl)c2)C(N)CC3)c1 (centres unmarked) [Example 3, N-(2-(7-Amino-8-(3,4-dichlorobenzyl)-5,6,7,8-tetrahydronaphthalen-2-yloxy)ethyl)-1-methyl-1H-imidazole-4-sulfonamide hydrochloride]	≤ 0.01	≤ 0.01
≤ 1	≤ 1	NC1CCc2ccc(OCCNS(=O)(=O)c3cccnc3)cc2C1Cc1ccc(Cl)c(Cl)c1 (centres unmarked) [Example 5, Pyridine-3-sulfonic acid {2-[7-amino-8-(3,4-dichloro-benzyl)-5,6,7,8-tetrahydro-naphthalen-2-yloxy]-ethyl}-amide hydrochloride]		
≤ 1	≤ 0.1	CCCS(=O)(=O)NCCOc1ccc2c(c1)C(Cc1ccc(Cl)c(Cl)c1)C(N(C)C)CC2 (centres unmarked) [Example 6]		
≤ 10	≤ 10	CCCS(=O)(=O)NCCOc1ccc2c(c1)C(Cc1ccc(Cl)c(Cl)c1)C(NC(=O)OCC)CC2 (centres unmarked) [Example 7]		
		CCCS(=O)(=O)NCCOc1ccc2c(c1)C(Cc1ccc(Cl)c(Cl)c1)C(N)CC2 (centres unmarked) [Example 8, Propane-1-sulfonic acid {2-[7-amino-8-(3,4-dichloro-benzyl)-5,6,7,8-tetrahydronaphthalen-2-yloxy]-ethyl}-amide hydrochloride]	≤ 0.1	≤ 0.1
≤ 1	≤ 1	CCOC(=O)NC1CCc2ccc(OCCNS(=O)(=O)c3cnn(C)c3)cc2C1Cc1ccc(Cl)c(Cl)c1 (centres unmarked) [Example 9, {1-(3,4-Dichloro-benzyl)-7-[2-(1-methyl-1H-pyrazole-4-sulfonylamino)-ethoxy]-1,2,3,4-tetrahydro-naphthalen-2-yl}-carbamic acid ethyl ester]		
≤ 100	≤ 10	CCOC(=O)NC1CCc2ccc(OCCNS(=O)(=O)c3cccnc3)cc2C1Cc1ccc(Cl)c(Cl)c1 (centres unmarked) [Example 10, {1-(3,4-Dichloro-benzyl)-7-[2-(pyridine-3-sulfonylamino)-ethoxy]-1,2,3,4-tetrahydronaphthalen-2-yl}-carbamic acid ethyl ester]		
≤ 1	≤ 0.1	CCCS(=O)(=O)N(C)CCOc1ccc2c(c1)C(Cc1ccc(Cl)c(Cl)c1)C(N)CC2 (centres unmarked) [Example 11, N-(2-(7-Amino-8-(3,4-dichlorobenzyl)-5,6,7,8-tetrahydronaphthalen-2-yloxy)ethyl)-N-methylpropane-1-sulfonamide hydrochloride]		
≤ 100	≥ 10	CCOC(=O)NC1CCc2ccc(OCCNS(C)(=O)=O)cc2C1Cc1ccc(Cl)c(Cl)c1 (centres unmarked) [Example 12, [1-(3,4-Dichloro-benzyl)-7-(2-methanesulfonylamino-ethoxy)-1,2,3,4-tetrahydronaphthalen-2-yl]-carbamic acid ethyl ester]		
≤ 1000	≤ 100	CCOC(=O)NC1CCc2ccc(OCCNS(=O)(=O)c3ccccc3)cc2C1Cc1ccc(Cl)c(Cl)c1 (centres unmarked) [Example 13, [7-(2-Benzenesulfonylamino-ethoxy)-1-(3,4-dichloro-benzyl)-1,2,3,4-tetrahydronaphthalen-2-yl]-carbamic acid ethyl ester]		
≤ 1000	≤ 100	CCOC(=O)NC1CCc2ccc(OCCNS(=O)(=O)c3cccs3)cc2C1Cc1ccc(Cl)c(Cl)c1 (centres unmarked) [Example 14, {1-(3,4-Dichloro-benzyl)-7-[2-(thiophene-2-sulfonylamino)-ethoxy]-1,2,3,4-tetrahydronaphthalen-2-yl}-carbamic acid ethyl ester]		
		CS(=O)(=O)NCCOc1ccc2c(c1)C(Cc1ccc(Cl)c(Cl)c1)C(N)CC2 (centres unmarked) [Example 15, N-{2-[7-Amino-8-(3,4-dichloro-benzyl)-5,6,7,8-tetrahydro-naphthalen-2-yloxy]-ethyl}-methanesulfonamide hydrochloride]	≤ 1	≤ 1
		NC1CCc2ccc(OCCNS(=O)(=O)c3ccccc3)cc2C1Cc1ccc(Cl)c(Cl)c1 (centres unmarked) [Example 16, N-{2-[7-Amino-8-(3,4-dichloro-benzyl)-5,6,7,8-tetrahydro-naphthalen-2-yloxy]-ethyl}-benzenesulfonamide hydrochloride]	≤ 10	≤ 10
≤ 0.1	≤ 0.01	Cn1cnc(S(=O)(=O)NCCOc2ccc3c(c2)C(Cc2ccc(Cl)c(Cl)c2)C(NC(=O)C(F)(F)F)CC3)c1 (centres unmarked) [Example 18, N-{1-(3,4-Dichloro-benzyl)-7-[2-(1-methyl-1H-imidazole-4-sulfonylamino)-ethoxy]-1,2,3,4-tetrahydro-naphthalen-2-yl}-2,2,2-trifluoro-acetamide]		
≤ 100	≤ 10	NC1CCc2ccc(OCCNS(=O)(=O)C3CCNC3)cc2C1Cc1ccc(Cl)c(Cl)c1 (centres unmarked) [Example 19, Pyrrolidine-3-sulfonic acid {2-[7-amino-8-(3,4-dichloro-benzyl)-5,6,7,8-tetrahydronaphthalen-2-yloxy]-ethyl}-amide hydrochloride]		
≤ 0.1	≤ 0.01	Cn1cnc(S(=O)(=O)NCCOc2ccc3c(c2)C(Cc2ccc(Cl)c(Cl)c2)C(NC=O)CC3)c1 (centres unmarked) [Example 20, 1-Methyl-1H-imidazole-4-sulfonic acid {2-[8-(3,4-dichloro-benzyl)-7-formylamino-5,6,7,8-tetrahydro-naphthalen-2-yloxy]-ethyl}-amide]		
≤ 1000	≤ 100	CCOC(=O)NC1CCc2ccc(OCCNS(=O)(=O)c3cc(C)cs3)cc2C1Cc1ccc(Cl)c(Cl)c1 (centres unmarked) [Example 21]		
≤ 1000	≤ 10	CCOC(=O)NC1CCc2ccc(OCCNS(=O)(=O)CCCF)cc2C1Cc1ccc(Cl)c(Cl)c1 (centres unmarked) [Example 22, {1-(3,4-Dichloro-benzyl)-7-[2-(3-fluoro-propane-1-sulfonylamino)-ethoxy]-1,2,3,4-tetrahydro-naphthalen-2-yl}-carbamic acid ethyl ester]		
≤ 100	≤ 10	CCNC1CCc2ccc(OCCNS(=O)(=O)c3cn(C)cn3)cc2C1Cc1ccc(Cl)c(Cl)c1 (centres unmarked) [Example 23, 1-Methyl-1H-imidazole-4-sulfonic acid {2-[8-(3,4-dichloro-benzyl)-7-ethylamino-5,6,7,8-tetrahydro-naphthalen-2-yloxy]-ethyl}-amide]		
		Cc1csc(S(=O)(=O)NCCOc2ccc3c(c2)C(Cc2ccc(Cl)c(Cl)c2)C(N)CC3)c1 (centres unmarked) [Example 24, 4-Methyl-thiophene-2-sulfonic acid {2-[7-amino-8-(3,4-dichloro-benzyl)-5,6,7,8-tetrahydronaphthalen-2-yloxy]-ethyl}-amide hydrochloride]	≤ 10	≤ 0.1

SMILES	IC50 [1, 3] [µM]	Ki [2, 4] [µM]	IC50 [1] [µM]	Ki [2] [µM]
Cn1cc(S(=O)(=O)NCCOc2ccc3c(c2)C(Cc2ccc(Cl)c(Cl)c2)C(N)CC3)cn1 (centres unmarked) [Example 4, 1-Methyl-1H-pyrazole-4-sulfonic acid {2-[7-amino-8-(3,4-dichloro-benzyl)-5,6,7,8-tetrahydro-naphthalen-2-yloxy]-ethyl}-amide hydrochloride]	≤ 0.01	≤ 0.01		
NC1CCc2ccc(OCCNS(=O)(=O)c3cccs3)cc2C1Cc1ccc(Cl)c(Cl)c1 (centres unmarked) [Example 17, Thiophene-2-sulfonic acid {2-[7-amino-8-(3,4-dichloro-benzyl)-5,6,7,8-tetrahydro-naphthalen-2-yloxy]-ethyl}-amide hydrochloride]	≤ 10	≤ 1		
